Measurements from patent publication US12128099B2 (priority 2018, dated 2024).
Values joined by “and” are separate entries in the source; they are usually repeats but may differ in a detail not shown here. Identical values can stand only once. Like-named read-outs stand apart in the source and are kept apart here.

Tests used:
[1] = tested on: THP-1 SAMD9 KD cells; type: cell-based, human; conditions: FIGS. 15A-15D, 16C
[2] = tested on: OC patient ascites-associated CD14+ monocytes
[3] = tested on: murine OC ID8 cells; type: cell-based
[4] = tested on: OvCa-2a; assay: cells; type: cell-based, human; conditions: read-out: calculated IC50
[5] = tested on: SKOV3; assay: cells; type: cell-based, human
[6] = tested on: MYXV
[7] = tested on: ID8 disseminated tumor; parameters: species or system mice; conditions: mouse, in vivo
[8] = tested on: primary OC cells (OvCa-2a and OvCa-26); type: cell-based, human
[9] = tested on: OvCa-26; assay: cells; type: cell-based, human; conditions: read-out: calculated IC50

**Q.** For Nc1nc2c(ncn2[C@@H]2O[C@@H]3COP(=O)(O)O[C@H]4[C@@H](O)[C@H](n5cnc6c(N)ncnc65)O[C@@H]4COP(=O)(O)O[C@@H]2[C@@H]3O)c(=O)[nH]1 [2′3′-cGAMP], which “IFNβ / ISG mRNA in SAMD9 KD cells versus control cells” value [1] is on record?
**A.** The value was “comparably to control cells”.

**Q.** With O=[N+]([O-])c1ccc2c(c1)S(=O)(=O)C=C2 [Stattic] as the compound, how does the IL-8 level [2] read?
**A.** Its IL-8 level is “unchanged levels of IL-8”.

**Q.** And the “cytokine secretion (IL-10, IL-6)” value [2]?
**A.** The value was “suppressive effect in cytokine secretion”.

**Q.** And the toxicity [2]?
**A.** The toxicity was “did not cause noticeable toxicity”.

**Q.** Which results are given for N.N.[Cl][Pt][Cl] [cisplatin]?
**A.** IC50 [3]: 2 µM; IC50 [4]: 3.6 µM; IC50 ([5]; read-out: IC50): 8.4 µM; MYXV DNA replication [6]: inhibits DNA replication of MYXV; Median survival [7]: 113 days and 127 days; median survival time [7]: 90 days; survival [7]: 40%; growth inhibition, drug treatment alone [8]: did not observe significant growth inhibition; IC50 [9]: 11.4 µM

**Q.** What does the source list for Nc1ccn([C@@H]2O[C@H](CO)[C@@H](O)C2(F)F)c(=O)n1 [gemcitabine]?
**A.** IC50 ([4]; Homo sapiens): 960 µM; IC50 ([5]; Homo sapiens, SK-OV-3): 9.32 µM; median survival time [7]: 78 days; therapeutic benefit, single-agent treatment given late [7]: did not lead to significant therapeutic benefit; growth inhibition, drug treatment alone [8]: did not observe significant growth inhibition; IC50 ([9]; Homo sapiens): 14.6 µM
